Consider 2 compounds from patent US5945566A, “Amino compounds of 6,7,8,9-tetrahydro-cyclopenta[a]naphthalene and of 2,3-dihydro-cyclopenta[e]indene” (Adir et Compagnie, priority 1997, dated 1999).

pKd, pKi: −log10 of the molar value.

Experiment [1] addresses T1, human dopamine D2 receptor (Homo sapiens, UniProt P14416).
T1 construct: expressed in transfected cells; membranes
Nature of the experiment: human D2 receptor binding ([125I]-iodosulpride, CHO membranes). Particulars: dissociation constant of radioligand. As for the experimental part:
(§1) .check mark. In vitro: human D2 and D3 receptor binding study
(§2) CHO (Chinese Hamster Ovary) cells were transfected in a stable manner by the gene that codes for the human dopamine D2 or D3 receptor according to methods known from the literature. The native cells are deficient in the enzyme DHFR (DiHydroFolate Reductase). The cells are cultured in an incubator at 37° C. in a humid atmosphere of 5% CO2 /95% air. The transfections are carried out using Lipofectin (Gibco). The CHO cells, co-transfected with the human D2 receptor and the gene for resistance to phleomycin, were selected for their resistance to the presence of that antibiotic in the culture medium. The cells transfected with the human D3 receptor were selected in a medium containing no hypoxanthine/thymidine in the presence of methotrexate. […]
(§3) The ranges of concentration of each compound include at least seven points determined in triplicate, each experiment being repeated at least twice.
(§4) The incubation, which lasts for thirty minutes at 30° C., is terminated by means of rapid filtration over a Brandle apparatus, followed by three consecutive rinses with Tris-HCl buffer, pH 7.4, containing 120 mM NaCl. The filters recovered are then counted using a gamma counter. […]

Experiment [2] deals with T2, human dopamine D3 receptor (Homo sapiens, UniProt P35462).
T2 construct: expressed in transfected cells; membranes
T2 sequence (P35462 whole entry): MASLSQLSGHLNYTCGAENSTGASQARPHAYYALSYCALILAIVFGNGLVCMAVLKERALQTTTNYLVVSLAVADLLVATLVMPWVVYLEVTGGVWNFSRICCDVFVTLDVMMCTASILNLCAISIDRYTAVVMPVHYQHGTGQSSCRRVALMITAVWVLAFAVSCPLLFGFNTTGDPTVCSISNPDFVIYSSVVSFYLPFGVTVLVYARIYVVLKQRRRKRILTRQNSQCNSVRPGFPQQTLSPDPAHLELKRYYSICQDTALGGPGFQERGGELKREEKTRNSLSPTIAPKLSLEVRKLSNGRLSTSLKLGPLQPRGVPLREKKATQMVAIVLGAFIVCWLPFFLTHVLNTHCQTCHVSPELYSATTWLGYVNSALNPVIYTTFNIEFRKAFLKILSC
Nature of the experiment: human D3 receptor binding ([125I]-iodosulpride, CHO membranes). As for the experimental part: as §1, §2, §3, §4

T1 sequence (P14416 whole entry): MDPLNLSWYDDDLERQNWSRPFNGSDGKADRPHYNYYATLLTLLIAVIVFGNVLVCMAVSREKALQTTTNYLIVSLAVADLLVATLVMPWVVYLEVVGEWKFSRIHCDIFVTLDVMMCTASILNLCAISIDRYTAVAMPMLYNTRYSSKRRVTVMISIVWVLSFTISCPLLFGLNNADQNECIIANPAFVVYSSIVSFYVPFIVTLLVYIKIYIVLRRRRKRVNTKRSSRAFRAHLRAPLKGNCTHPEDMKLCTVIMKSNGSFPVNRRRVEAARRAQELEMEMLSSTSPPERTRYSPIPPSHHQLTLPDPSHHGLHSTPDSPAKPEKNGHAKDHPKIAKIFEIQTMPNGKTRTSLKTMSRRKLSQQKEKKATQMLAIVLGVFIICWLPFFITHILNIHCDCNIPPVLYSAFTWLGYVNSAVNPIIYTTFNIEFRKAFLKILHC

On to [^125 I]-iodosulpride, for which the pKd in experiment [1] is 9.30; in experiment [2] (dissociation constant of radioligand), 8.88.

In turn, `CCCN(CCC)C1CCc2c(ccc3c2C(=O)CC3)C1` (racemic) [Example 2, (7R,S)-7-(N,N-Dipropylamino)-6,7,8,9-tetrahydro-cyclopenta[a]-naphthalen-1-one] had a negative logarithm of the Ki (pKi) in experiment [2] ([125I]-iodosulpride 0.2 nM, CHO membranes, pKi = -logKi) of 8.00.

In general, pKd refers to −log10 of the Kd, conventionally taken in molar units. A higher pKd goes with a small Kd. One may read the pKi as −log10 of the Ki, conventionally taken in molar units. Read a high pKi as a small Ki.
